Like-named read-outs stand apart in the source and are kept apart here. Ends that are not written are not given here.
Tests used:
[1] = system: S. aureus ATCC 25923; type: cell-based, Staphylococcus aureus
Experimental: (§1) Reference bacterial strains, including Escherichia coli BW25113, Escherichia coli ATCC 25922, Klebsiella pneumoniae ATCC 700603, Acinetobacter baumannii ATCC 19606, Enterobacter cloacae ATCC 13047, Pseudomonas aeruginosa ATCC 27853, Staphylococcus aureus ATCC 25923, and Enterococcus faecium ATCC 19434, were obtained from the American Type Culture Collection (ATCC) in Manassas, VA, USA. Strains were stored at −80 °C in glycerol stocks until use. For all experiments, cultures were grown in sterile MHB (Difco Inc., Becton Dickinson, Sparks, MD, USA). Overnight cultures were incubated at 37 °C for approximately 18 h under shacking (140 rpm, then diluted 1:30 in fresh MHB and again shaken at 140 rpm for ~2 h to reach the mid-log phase (OD ~0.3 at 600 nm). The bacterial cultures were then diluted to the desired concentration for experiments. E. coli BW25113 ΔsbmA (Keio collection) was grown in MHB with the addition of 50 μg/mL kanamycin (Sigma, Milan, Italy).
(§2) The Minimal Bactericidal Concentration (MBC) was determined by plating 25 μL from clear MIC wells onto MH-agar Petri dishes (Difco Inc., Becton Dickinson, Sparks, MD, USA), followed by overnight incubation at 37 °C. The MBC was the lowest compound concentration, reducing bacterial viability by ≥99.9%. Results were based on at least three independent experiments (n ≥ 3).

[2] = system: E. cloacae ATCC 13047; type: cell-based, Enterobacter cloacae
Experimental: as §1
(§3) Antimicrobial activity was assessed using the Minimum Inhibitory Concentration (MIC) assay, following CLSI guidelines. Briefly, peptides were serially diluted in MHB across a 96-well round-bottom plate (Sarstedt, Milan, Italy), starting with 50 μL in the first well. A mid-log bacterial culture was diluted to 5 × 10^5 CFU/mL, and 50 μL of this suspension was added to each well (except the MHB sterility control wells). […] MIC values were confirmed by at least three independent experiments (n ≥ 3).

[3] = system: K. pneumoniae ATCC 700603; type: cell-based, Klebsiella pneumoniae
Experimental: as §1, §2

[4] = system: E. faecium ATCC 19434; type: cell-based, Enterococcus faecium
Experimental: as §1, §2

[5] = system: E. coli ATCC 25922; type: cell-based, Escherichia coli
Experimental: as §1, §2

[6] = system: E. coli BW 25113; type: cell-based, Escherichia coli; settings: ≥99.9% reduction of viability, after 18 h at 37 °C, mode of at least three independent experiments
Experimental: as §1, §2

[7] = system: P. aeruginosa ATCC 27853; type: cell-based, Pseudomonas aeruginosa
Experimental: as §1, §2

[8] = system: P. aeruginosa ATCC 27853; type: cell-based, Pseudomonas aeruginosa; remark: listed apart in the source
Experimental: as §1, §3

[9] = system: E. coli BW 25113 ΔsbmA; type: cell-based, Escherichia coli; settings: full MHB, 18 h at 37 °C, mode of at least three independent experiments
Experimental: as §1, §3

[10] = system: E. coli ATCC 25922; type: cell-based, Escherichia coli; remark: listed apart in the source
Experimental: as §1, §3

[11] = system: E. coli BW 25113; type: cell-based, Escherichia coli; settings: full MHB, 18 h at 37 °C, mode of at least three independent experiments
Experimental: as §1, §3

[12] = system: E. faecium ATCC 19434; type: cell-based, Enterococcus faecium; remark: listed apart in the source
Experimental: as §1, §3

[13] = system: A. baumannii ATCC 19606; type: cell-based, Acinetobacter baumannii
Experimental: as §1, §2

[14] = system: E. cloacae ATCC 13047; type: cell-based, Enterobacter cloacae; remark: listed apart in the source
Experimental: as §1, §2

[15] = system: A. baumannii ATCC 19606; type: cell-based, Acinetobacter baumannii; settings: ATCC 19606, 18 h
Experimental: as §1, §3

[16] = system: S. aureus ATCC 25923; type: cell-based, Staphylococcus aureus; settings: ATCC 25923, 18 h
Experimental: as §1, §3

[17] = system: K. pneumoniae ATCC 700603; type: cell-based, Klebsiella pneumoniae; settings: ATCC 700603, 18 h
Experimental: as §1, §3

[18] = system: E. coli BW 25113 ΔsbmA; type: cell-based, Escherichia coli; settings: ≥99.9% reduction of viability, after 18 h at 37 °C, mode of at least three independent experiments
Experimental: as §1, §2

Row | Sequence | MBC [6] [µM] | MIC [9] [µM] | MIC [11] [µM] | MBC ([1]; ATCC 25923, 18 h) [µM] | MIC [15] [µM] | MBC ([4]; ATCC 19434, 18 h) [µM] | MBC ([5]; ATCC 25922, 18 h) [µM] | MBC (geometric mean) ([5]; ATCC 25922, 18 h) | MIC [16] [µM] | MIC (geometric mean) [16] | MBC ([7]; ATCC 27853, 18 h) [µM] | MIC ([8]; ATCC 27853, 18 h) [µM] | MIC (geometric mean) ([8]; ATCC 27853, 18 h) | MIC ([10]; ATCC 25922, 18 h) [µM] | MIC (geometric mean) ([10]; ATCC 25922, 18 h) | MBC ([14]; ATCC 13047, 18 h) [µM] | MBC (geometric mean) ([1]; ATCC 25923, 18 h) | MBC ([3]; ATCC 700603, 18 h) [µM] | MBC (geometric mean) ([3]; ATCC 700603, 18 h) | MIC [17] [µM] | other results
1 | WRIRRRWPRLPRPRWR [Peptide B7-005] | 2 | 2 | 1 |  |  |  |  |  |  |  |  |  |  |  |  |  |  |  |  |  | MBC ([1]; S. aureus ATCC 25923, ≥99.9% reduction of viability, after 18 h at 37 °C, mode of at least three independent experiments): 16 µM; MIC ([2]; E. cloacae ATCC 13047, full MHB, 18 h at 37 °C, mode of at least three independent experiments): 8 µM; MBC ([3]; K. pneumoniae ATCC 700603, ≥99.9% reduction of viability, after 18 h at 37 °C, mode of at least three independent experiments): 4 µM; MBC ([4]; E. faecium ATCC 19434, ≥99.9% reduction of viability, after 18 h at 37 °C, mode of at least three independent experiments): >64 µM; MBC ([5]; E. coli ATCC 25922, ≥99.9% reduction of viability, after 18 h at 37 °C, mode of at least three independent experiments): 2 µM; MBC ([7]; P. aeruginosa ATCC 27853, ≥99.9% reduction of viability, after 18 h at 37 °C, mode of at least three independent experiments): 16 µM; MIC ([8]; P. aeruginosa ATCC 27853, full MHB, 18 h at 37 °C, mode of at least three independent experiments): 16 µM; MIC ([10]; E. coli ATCC 25922, full MHB, 18 h at 37 °C, mode of at least three independent experiments): 1 µM; MIC ([12]; E. faecium ATCC 19434, full MHB, 18 h at 37 °C, mode of at least three independent experiments): 32 µM; MBC ([13]; A. baumannii ATCC 19606, ≥99.9% reduction of viability, after 18 h at 37 °C, mode of at least three independent experiments): 4 µM; MBC ([14]; E. cloacae ATCC 13047, ≥99.9% reduction of viability, after 18 h at 37 °C, mode of at least three independent experiments): 16 µM
2 | WRIRRRWPRLPRPRWRPLPFPR [Peptide B7-B6] | 1 | 2 | 1 | 16 | 1 | >64 | 2 | 1,6 µM | 8 | 10,1 µM | 16 | 8 | 10,1 µM | 2 | 1,6 µM | 4 |  |  |  |  | MIC ([12]; ATCC 19434, 18 h): 8 µM; MIC (geometric mean) ([12]; ATCC 19434, 18 h): 10,1 µM
3 | WRIRRRWPRLPRPRWRPLPFPRPGPRP [Peptide B7-B11] | 1 | 1 | 0.5 | 32 | 1 | >64 |  |  | 16 | 20,2 µM | 16 | 16 | 12,7 µM | 1 | 0,8 µM | 4 | 40,3 µM | 8 | 6,3 µM | 2 | MIC ([2]; ATCC 13047, 18 h): 2 µM; MIC (geometric mean) [15]: 0,8 µM; MBC (geometric mean) ([7]; ATCC 27853, 18 h): 20,2 µM; MBC ([13]; ATCC 19606, 18 h): 2 µM
4 | WRIRRRWPRLPRPRWRPRFPPP [Peptide B7-T6] | 2 | 1 | 1 | 32 | 1 | >64 | 0.5 | 0,6 µM | 16 |  | 32 | 8 | 12,7 µM | 0.5 | 0,6 µM | 4 | 25,4 µM |  |  |  | MIC ([2]; ATCC 13047, 18 h): 2 µM; MIC (geometric mean) ([2]; ATCC 13047, 18 h): 2,5 µM; MBC [18]: 2 µM; MBC (geometric mean) ([7]; ATCC 27853, 18 h): 25,4 µM; MIC ([12]; ATCC 19434, 18 h): 16 µM
5 | WRIRRRWPRLPRPRWRPWFPPR [Peptide B7-L6] | 1 | 2 |  | 8 | 2 | 32 | 4 | 3,2 µM |  |  |  | 4 | 5,0 µM | 4 | 3,2 µM | 2 | 10,1 µM | 4 | 3,2 µM | 2 | MIC (geometric mean) [15]: 1,6 µM; MBC (geometric mean) ([4]; ATCC 19434, 18 h): 40,3 µM; MIC (geometric mean) [17]: 2,5 µM; MBC [18]: 2 µM; MBC ([13]; ATCC 19606, 18 h): 2 µM; MBC (geometric mean) ([13]; ATCC 19606, 18 h): 1,6 µM; MBC (geometric mean) ([14]; ATCC 13047, 18 h): 2,5 µM
6 | WRIRRRWPRLPRPRWRPWFPPRFPIPR [Peptide B7-L11] | 2 | 2 | 1 |  |  | 16 | 2 | 2,5 µM |  | 5,0 µM |  | 8 | 6,3 µM | 2 | 2,5 µM | 2 |  | 4 | 3,2 µM | 2 | MIC (geometric mean) [17]: 2,5 µM; MBC [18]: 2 µM; MBC (geometric mean) ([14]; ATCC 13047, 18 h): 2,5 µM
